Values after ≈ are worked out from the molar mass of the structure shown. Square brackets hold non-standard residues; d marks the D form. Peptide text beside a SMILES is read from it. * marks the point of attachment. ξ: configuration not given here. Biphenylcarbonyl(4'-Bu) = CCCCc1ccc(-c2ccc(C(=O)*)cc2)cc1; X1 = C[C@H](N*)B1OC2C[C@@H]3C[C@@H](C3(C)C)[C@]2(C)O1; Pro(4S-NH2) = N[C@@H]1CN[C@H](C(=O)O)C1; boroAla = C[C@H](N*)B(O)O; Ac3c = NC1(C(=O)O)CC1; ξOrn = NCCCC(N)C(=O)O; βAla = NCCC(=O)O
Key:
E. coli SPase = E. coli SPase (Escherichia coli, UniProt P00803); test: Biochemical SPase activity assay (fluorogenic peptide substrate), E. coli enzyme
[1] = system: methicillin resistant Staphylococcus aureus (MRSA) strain USA300 (NRS384); settings: Method B, 35° C., 22 hours
[2] = system: Escherichia coli strain MC4100 IMP-4213, which harbors an LptD mutation; settings: Method B; E. coli MC4100 IMP-4213 (LptD mutation); 35° C., 22 hours
Method in brief: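 Two-fold serial dilutions of compound inoculated at final OD600 0.0005, incubated static at 35 °C for 22 h, and growth read visually.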

S. aureus SPase = S. aureus SPase (Staphylococcus aureus, UniProt P0A070); test: biochemical

Row | Compound | IC50 (E. coli SPase) | MIC (μg/mL) S. aureus [1] | MIC (μg/mL) E. coli [2] | IC50 (S. aureus SPase)
1 | CCCCc1ccc(-c2ccc(C(=O)NCCC(=O)N3C[C@@H](N)C[C@H]3C(=O)N[C@H](C(=O)N[C@@H](C)C(=O)N[C@@H](CC(N)=O)C(=O)N[C@@H](C)B3OC4C[C@@H]5C[C@@H](C5(C)C)[C@]4(C)O3)[C@@H](C)O)cc2)cc1 (stereo partly drawn) [Compound 213] ({Biphenylcarbonyl(4'-Bu)-βAla}-[Pro(4S-NH2)]TAN-X1) | 6.8 nM | 0.22 µg/mL (≈ 0.237 µM) | 1.3 µg/mL (≈ 1.4 µM) | 7.7 nM
2 | CCCCc1ccc(-c2ccc(C(=O)NCCC(=O)N[C@@H](CCCCN)C(=O)N3CCC[C@H]3C(=O)N[C@@H](C)C(=O)N[C@@H](CCCCN)C(=O)N[C@@H](C)B3OC4C[C@@H]5C[C@@H](C5(C)C)[C@]4(C)O3)cc2)cc1 (stereo partly drawn) [Compound 214] ({Biphenylcarbonyl(4'-Bu)-βAla}-KPAK-X1) | 77 nM | 0.35 µg/mL (≈ 0.366 µM) | 5.7 µg/mL (≈ 5.97 µM) | 17 nM
3 | CCCCc1ccc(-c2ccc(C(=O)NCCC(=O)N[C@@H](CCCCN)C(=O)N[C@@H](Cc3ccc(O)cc3)C(=O)N[C@@H](C)C(=O)N[C@@H](CCCCN)C(=O)N[C@@H](C)B(O)O)cc2)cc1 [Compound 215] ({Biphenylcarbonyl(4'-Bu)-βAla}-KYAK-boroAla) | 77 nM | 0.5 µg/mL (≈ 0.564 µM) | 4 µg/mL (≈ 4.51 µM) | 17 nM
4 | CCCCc1ccc(-c2ccc(C(=O)NCCC(=O)N[C@@H](CCCCN)C(=O)N[C@@H](CCC(N)=O)C(=O)N[C@@H](C)C(=O)N[C@@H](CCCCN)C(=O)N[C@@H](C)B3OC4C[C@@H]5C[C@@H](C5(C)C)[C@]4(C)O3)cc2)cc1 (stereo partly drawn) [Compound 216] ({Biphenylcarbonyl(4'-Bu)-βAla}-KQAK-X1) | 29 nM | 0.21 µg/mL (≈ 0.213 µM) | 4 µg/mL (≈ 4.06 µM) | 4.1 nM
5 | CCCCc1ccc(-c2ccc(C(=O)NCCC(=O)N[C@@H](CCCCN)C(=O)NC(CCCN)C(=O)N[C@@H](C)C(=O)N[C@@H](CC(C)C)C(=O)N[C@@H](C)B3OC4C[C@@H]5C[C@@H](C5(C)C)[C@]4(C)O3)cc2)cc1 (stereo partly drawn) [Compound 217] ({Biphenylcarbonyl(4'-Bu)-βAla}-K[ξOrn]AL-X1) | 15 nM | 0.35 µg/mL (≈ 0.366 µM) | 1.6 µg/mL (≈ 1.67 µM) | 14 nM
6 | CCCCc1ccc(-c2ccc(C(=O)NCCC(=O)N[C@@H](CCCCN)C(=O)N[C@@H](CCCCN)C(=O)N[C@@H](C)C(=O)N[C@@H](CC(C)C)C(=O)N[C@@H](C)B3OC4C[C@@H]5C[C@@H](C5(C)C)[C@]4(C)O3)cc2)cc1 (stereo partly drawn) [Compound 218] ({Biphenylcarbonyl(4'-Bu)-βAla}-KKAL-X1) | 6.9 nM | 0.5 µg/mL (≈ 0.515 µM) | 1.3 µg/mL (≈ 1.34 µM) | 13 nM
7 | CCCCc1ccc(-c2ccc(C(=O)NCCC(=O)N[C@@H](CCCCN)C(=O)N[C@H](C(=O)N[C@@H](C)C(=O)NC3(C(=O)N[C@@H](C)B4OC5C[C@@H]6C[C@@H](C6(C)C)[C@]5(C)O4)CC3)[C@@H](C)O)cc2)cc1 (stereo partly drawn) [Compound 219] ({Biphenylcarbonyl(4'-Bu)-βAla}-KTA[Ac3c]-X1) | 560 nM | 5 µg/mL (≈ 5.47 µM) | 64 µg/mL (≈ 70 µM) | 46 nM
8 | CCCCc1ccc(-c2ccc(C(=O)NCCC(=O)N[C@@H](CCCCN)C(=O)N3CCC[C@H]3C(=O)N[C@@H](C)C(=O)N[C@@H](CC(N)=O)C(=O)N[C@@H](C)B(O)O)cc2)cc1 [Compound 220] ({Biphenylcarbonyl(4'-Bu)-βAla}-KPAN-boroAla) | 36 nM | 0.5 µg/mL (≈ 0.62 µM) | 4 µg/mL (≈ 4.96 µM) | 7 nM
9 | CCCCc1ccc(-c2ccc(C(=O)NCCC(=O)N[C@@H](CCCCN)C(=O)N3CCC[C@H]3C(=O)N[C@@H](C)C(=O)N[C@@H](CCCCN)C(=O)N[C@@H](C)B(O)O)cc2)cc1 [Compound 221] ({Biphenylcarbonyl(4'-Bu)-βAla}-KPAK-boroAla) | 62 nM | 1 µg/mL (≈ 1.22 µM) | 8 µg/mL (≈ 9.75 µM) | 130 nM
